Reference: PMC7059793, “Novel Chemical Scaffolds to Inhibit the Neutral Amino Acid Transporter B^0AT1 (SLC6A19), a Potential Target to Treat Metabolic Diseases” (Frontiers in Pharmacology, 2020)
Like-named read-outs stand apart in the source and are kept apart here.

How the values were obtained:
B^0AT1 [1] = molecular target: T1, B^0AT1 (Homo sapiens, UniProt Q695T7); experiment: Membrane potential detecting FLIPR assay in CHO-BC cells; assay type: cell-based; settings: 30 min pre-incubation, leucine or isoleucine 1.5 mM
T1 construct: expressed in transfected cells
T1 sequence (Q695T7 1-634): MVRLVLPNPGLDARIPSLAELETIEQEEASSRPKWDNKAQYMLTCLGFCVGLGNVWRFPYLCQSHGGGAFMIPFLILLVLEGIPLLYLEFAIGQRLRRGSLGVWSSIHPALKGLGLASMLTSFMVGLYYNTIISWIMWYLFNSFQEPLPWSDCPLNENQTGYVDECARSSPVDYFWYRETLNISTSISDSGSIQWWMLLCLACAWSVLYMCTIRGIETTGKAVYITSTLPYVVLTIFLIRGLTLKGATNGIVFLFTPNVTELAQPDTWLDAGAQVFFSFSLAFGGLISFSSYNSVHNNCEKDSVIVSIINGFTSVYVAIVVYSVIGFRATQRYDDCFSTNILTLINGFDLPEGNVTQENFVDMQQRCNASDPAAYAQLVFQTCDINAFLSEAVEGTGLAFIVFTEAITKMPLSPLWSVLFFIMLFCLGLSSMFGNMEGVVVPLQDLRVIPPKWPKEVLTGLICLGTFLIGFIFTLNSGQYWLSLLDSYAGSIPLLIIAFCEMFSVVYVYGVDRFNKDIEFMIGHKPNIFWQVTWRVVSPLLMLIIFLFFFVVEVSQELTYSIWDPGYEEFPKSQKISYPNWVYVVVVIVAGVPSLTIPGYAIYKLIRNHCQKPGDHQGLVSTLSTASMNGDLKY
T1 sequence (Q9HBJ8 15-222 partner): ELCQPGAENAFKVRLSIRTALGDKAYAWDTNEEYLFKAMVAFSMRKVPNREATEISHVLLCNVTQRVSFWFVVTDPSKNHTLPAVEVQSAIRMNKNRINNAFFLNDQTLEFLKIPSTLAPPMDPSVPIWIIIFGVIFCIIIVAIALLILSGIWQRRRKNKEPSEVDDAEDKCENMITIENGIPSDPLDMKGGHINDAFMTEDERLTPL
Experimental: CHO-B^0AT1-collectrin Cells (CHO-BC) were generated, cultured, and used as described recently ([Cheng et al., 2017]). Expression levels of B^0AT1 in CHO-BC cells decline over time. As a result, passages <10 were used for experiments. The cells were maintained in Ham’s F-12 glutamax media with 10% (v/v) fetal bovine serum (FBS, Heat inactivated, 10082147 Gibco), 1mM glutamine, 300μg/ml hygromycin B and 275 μg/ml geneticin.
Membrane depolarisation induced by amino acid transport was monitored using a FLIPR® kit (Molecular Devices, R8042 BLUE DYE). Before the assay, CHO-BC cells were seeded out at a density of 60,000 cells/well and maintained in a flat transparent bottom 96-well plate (Corning) overnight. After washing three times with Hank’s balanced salt solution (136.6 mM NaCl, 5.4 mM KCl, 0.44 mM KH2PO4, 2.7mM Na2HPO4, 1.26mM CaCl2, 0.5mM MgCl2, 0.4 mM MgSO4, 10mM HEPES, pH 7.5, supplemented with 5 mM glucose, abbreviated HBSS + G), cells in each well were incubated for 30 min at room temperature in 50 µl of HBSS pH 7.5 containing 5 mM glucose and compounds as indicated, together with 50 µl of dye-loading buffer provided with the kit. Subsequently, the fluorescence signal was detected every 10 s before and after the addition of leucine or isoleucine at a final concentration of 1.5 mM. Fluorescence was detected at room temperature using a PerkinElmer multimode Plate Reader, with an excitation wavelength of 530 nm and emission wavelength of 565 nm.
(§1) Data are shown as mean ± S.D., transport activities indicated as Na^+-dependent net uptake, were calculated by subtracting the uptake activity in the absence of Na^+ from the total uptake rate. The fluorescent signals measured in the FLIPR assay were normalized to baseline readings before the addition of substrates. Data are presented as percentage of baseline at each time point. IC50 was calculated using the equation: y=ymax(1−[x]/[x]+IC50) .

B^0AT1 [2] = molecular target: T1, B^0AT1; experiment: Radioactive flux assay (radiolabelled leucine/isoleucine uptake) in CHO-BC cells; assay type: cell-based; settings: 150 μM [14C]leucine or [14C]isoleucine, 6 min, 37°C
Experimental: CHO-BC cells with passage numbers from 3 to 10 were used in radio-labelled uptake assays. Before the assay, the cells were seeded out in 35 mm dishes (Corning) and maintained for 48–72 h until reaching 80–90% confluence. To initiate transport, the culture medium was removed and the cells washed three times with HBSS + G. Subsequently, cells were incubated with HBSS + G, radiolabelled substrates (150 μM L-[U-^14C]leucine or 150 μM L-[U-^14C]isoleucine) and inhibitors as indicated in the figures or table in a 37°C water bath for 6 min. To terminate transport, cells were washed three times with ice-cold HBSS pH 7.5. For measuring sodium-independent uptake, NaCl in Hank’s buffer was replaced by NMDG-Cl. Cells were then harvested by homogenizing with 500 µl of 0.1 M HCl. An aliquot of 400 µl was used for scintillation counting and the remainder for protein quantification. To investigate inhibition of ASCT2, uptake of 100 μM [^14C]glutamine was measured in 143B cells in the absence and presence of inhibitor (at 10 μM and 50 μM). To measure inhibition of LAT1, uptake of [^14C]leucine was measured in HBSS + G in which NaCl was replaced by NMDG-Cl in 143B cells in the absence and presence of inhibitor (at 10 μM and 50 μM).
as §1

B^0AT1 [3] = settings: rat brush-border B^0AT1 in proteoliposomes; ref Pochini et al., 2014; cited from earlier work
B^0AT1 [4] = molecular target: T2, B^0AT1 (Mus musculus, UniProt Q9D687); experiment: Na+-dependent leucine uptake in inverted sections of mouse intestine; settings: 50 μM inhibitor, 150 μM [14C]leucine
T2 construct: from tissue; host or cells: small intestine of C57/BL6J female mice, inverted 1 cm sections
T2 sequence (Q9D687 whole entry): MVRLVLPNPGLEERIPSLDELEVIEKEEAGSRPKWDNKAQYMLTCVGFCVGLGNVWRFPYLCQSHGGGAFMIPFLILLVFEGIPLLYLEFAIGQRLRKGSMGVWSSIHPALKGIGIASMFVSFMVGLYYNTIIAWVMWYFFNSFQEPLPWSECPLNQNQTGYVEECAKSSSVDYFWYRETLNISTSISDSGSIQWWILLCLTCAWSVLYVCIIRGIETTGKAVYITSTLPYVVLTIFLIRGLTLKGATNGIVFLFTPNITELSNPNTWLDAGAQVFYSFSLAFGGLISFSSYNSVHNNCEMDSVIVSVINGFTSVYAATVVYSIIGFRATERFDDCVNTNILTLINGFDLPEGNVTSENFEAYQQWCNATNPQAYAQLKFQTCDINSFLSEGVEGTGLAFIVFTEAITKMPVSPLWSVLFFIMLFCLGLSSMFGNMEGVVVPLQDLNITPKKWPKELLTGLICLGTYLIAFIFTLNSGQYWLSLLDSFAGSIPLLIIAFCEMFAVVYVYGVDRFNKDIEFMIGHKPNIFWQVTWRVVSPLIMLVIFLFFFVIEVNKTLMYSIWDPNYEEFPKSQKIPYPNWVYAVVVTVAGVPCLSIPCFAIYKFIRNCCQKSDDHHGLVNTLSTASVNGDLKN
T2 sequence (Q8R0I0 18-805 partner): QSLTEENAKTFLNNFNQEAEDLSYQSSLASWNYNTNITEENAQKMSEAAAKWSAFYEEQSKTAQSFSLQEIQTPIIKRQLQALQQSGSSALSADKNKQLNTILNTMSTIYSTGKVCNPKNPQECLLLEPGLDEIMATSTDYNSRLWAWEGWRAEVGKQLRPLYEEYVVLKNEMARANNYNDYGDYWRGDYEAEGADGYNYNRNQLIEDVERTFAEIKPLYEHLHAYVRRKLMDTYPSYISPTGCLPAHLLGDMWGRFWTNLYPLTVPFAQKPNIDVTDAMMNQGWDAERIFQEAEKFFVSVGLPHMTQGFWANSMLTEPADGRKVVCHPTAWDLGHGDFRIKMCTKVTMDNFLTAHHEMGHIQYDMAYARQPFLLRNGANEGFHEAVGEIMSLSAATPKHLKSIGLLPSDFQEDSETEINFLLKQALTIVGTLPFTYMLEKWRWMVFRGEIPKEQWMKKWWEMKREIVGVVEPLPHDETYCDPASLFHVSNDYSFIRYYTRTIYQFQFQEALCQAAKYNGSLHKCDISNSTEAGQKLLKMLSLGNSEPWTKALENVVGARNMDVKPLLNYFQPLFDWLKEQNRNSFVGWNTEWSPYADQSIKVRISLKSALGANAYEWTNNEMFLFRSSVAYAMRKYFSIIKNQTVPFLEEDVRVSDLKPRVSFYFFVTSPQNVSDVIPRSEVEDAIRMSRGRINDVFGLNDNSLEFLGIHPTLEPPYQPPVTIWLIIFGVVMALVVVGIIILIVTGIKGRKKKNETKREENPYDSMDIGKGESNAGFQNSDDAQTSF
Text: For uptake assays with inverted sections of mouse small intestine, 5–7 months old C57/BL6J female mice were sacrificed by cervical dislocation (Animal ethics protocol A2016/41, Australian National University). The small intestine was removed and the intestinal lumen was rinsed with ice-cold 0.9% NaCl. Subsequently, the small intestine was inverted on a metal rod to expose the mucosa. The inverted intestine was then cut into 1 cm pieces and fitted onto enzyme spatulas, which were immersed in HBSS pH 7.5 supplemented with 1 mM glutamine and protease inhibitor (Roche Complete). After washing twice in modified HBSS pH 7.5 (containing 10% NaCl + 90% NMDG-Cl for Na^+-dependent uptake and 100% NMDG-Cl for Na^+-independent uptake, both buffers supplemented with 1 mM glutamine) to remove residual compounds, the segments were pre-incubated in the same buffer in the presence of 50 µM of transport inhibitor and protease inhibitors for 15 min. At the end of the pre-incubation, the segments were transferred for 30 s into uptake buffer at 37°C (HBSS pH 7.5 supplemented with 150 μM [^14C]leucine and 50 µM transport inhibitor). For Na^+-dependent uptake regular HBSS was used, for Na^+-independent uptake NaCl was replaced by NMDG-Cl. Subsequently, the segments were rinsed three times in ice-cold HBSS pH 7.5 and lysed in 400 µl of 10% SDS. After 2–3 h, the lysed tissues were analyzed by scintillation counting.
To test whether the novel B^0AT1 inhibitors block the transporter in a more physiological environment, we studied leucine uptake in inverted sections of mouse intestine ( Figure 6C ). We established previously that Na^+-dependent leucine uptake (blue bars) in this system is mediated by B^0AT1 ([Broer et al., 2011]). In addition leucine uptake has a Na^+-independent transport component (salmon coloured bars), which is most likely mediated by rbat/b^0,+AT. Because of variability between animals, all data were normalized to uninhibited controls from the same animal.

B^0AT1 [5] = molecular target: T1, B^0AT1; settings: reference not printed at the place; ref Danthi et al., 2019; cited from earlier work

SMILES	IC50 (B^0AT1 [1]) [µM]	IC50 (B^0AT1 [2]) [µM]	Inhibition of Na+-dependent leucine uptake (B^0AT1) ex vivo (B^0AT1 [4])	IC50 (B^0AT1 [3]) [µM]	IC50 (B^0AT1 [5]) [µM]
Cc1ccc(C(CCCN2CCOCC2)c2ccc3c(c2)OCO3)cc1 (stereo not shown) [Compound E-84]	31 ± 3	19 ± 4	–	–	–
COc1ccc(C(CCCN2CCOCC2)c2ccc(C)cc2)cc1 (stereo not shown) [Compound E-62]	20 ± 1	16 ± 8	–	–	–
COc1ccc(C(CCCN2CCCCC2)c2ccc3c(c2)OCO3)cc1 (stereo not shown) [Compound E-90]	74 ± 19	25 ± 8	–	–	–
CS(=O)(=O)Nc1ccc([N+](=O)[O-])cc1Oc1ccccc1 [Nimesulide]	–	–	–	23	–
CCNC(=O)/C=C/c1cccc(Br)c1 [Cinromide, cinromide, reference compound]	0.5 ± 0.08	–	limited capacity to inhibit B^0AT1	–	0.3
COc1ccc(C(CCCN2CCOCC2)c2ccccc2)cc1 (stereo not shown) [Compound E-47]	21 ± 6	17 ± 9	–	–	–
c1ccc(CCCN2CCCCC2Cc2ccccc2)cc1 (stereo not shown) [NSC22789, reference compound]	90 ± 21	78 ± 16	–	–	–

Now from value to molecule, other results behind:

IC50 (B^0AT1 [1]) [µM]	IC50 (B^0AT1 [2]) [µM]	Inhibition of Na+-dependent leucine uptake (B^0AT1) ex vivo (B^0AT1 [4])	SMILES	IC50 (B^0AT1 [3]) [µM]	IC50 (B^0AT1 [5]) [µM]
39 ± 4	34 ± 7	–	COc1ccc(C(CCCN2CCOCC2)c2ccc3c(c2)OCO3)cc1 (stereo not shown) [Compound E-89]	–	–
36 ± 11	8 ± 2	–	Cc1ccc(C(CCCN2CCCCC2)c2ccc3c(c2)OCO3)cc1 (stereo not shown) [Compound E-85]	–	–
33 ± 9	19 ± 6	–	COc1ccc(C(CCCN2CCOCC2)c2ccc(F)cc2)cc1 (stereo not shown) [Compound E-68]	–	–
32 ± 14	39 ± 10	–	COc1ccc(C(CCCN2CCCCC2)c2ccc(C)cc2)cc1 (stereo not shown) [Compound E-63]	–	–
31 ± 15	8 ± 4	–	COc1ccc(C(CCCN2CCCCC2)c2ccccc2)cc1 (stereo not shown) [Compound E-53]	–	–
44 ± 9	71 ± 8	–	CN1[C@@H]2CC[C@H]1C[C@@H](OC(c1ccccc1)c1ccccc1)C2 [Benztropin, benztropine, reference compound]	–	–
94 ± 20	46 ± 7	–	COc1ccc(C(CCCN2CCCCC2)c2ccc(F)cc2)cc1 (stereo not shown) [Compound E-69]	–	–
